Source: US20040110768A1, “Bombesin receptor antagonists” (priority 2000, published 2004)
Where a name gives a salt, the structure may show the parent alone.

What was measured:
[1] = tested on: Ovariectomised adult female Sprague Dawley rats; assay: Female rat sexual proceptivity test; type: in vivo; conditions: for difference in the percentage of time spent investigating the male stimuli minus female stimuli / MED, difference in percentage of time spent investigating male minus female stimuli: 1 h before test
Experimental: Ovariectomised adult female Sprague Dawley rats (180-200 g) were housed in groups of 6 in a reversed lighting system of 12 h light:dark (lights off 7.00-19.00 h). Two weeks after ovariectomy they were used for sexual activity tests. Animals were Adapted to the apparatus (in the absence of stimuli animals) for 10 min on 2 Consecutive days prior to testing. The experiments started at least 5 h into the dark period. Tests were carried out in a circular arena of 90 cm diameter, surrounded by a 30 cm high wall. Two small cages with wire-mesh front (15×15 cm) are fixed into the wall such that the front of the cage is “flush” with the wall and the 2 cages are opposite each other. They contain two stimuli animals: an intact sexually experienced male and a receptive female (ovariectomised, primed with 5 μg oestradiol benzoate dissolved in corn oil and injected subcutaneously 48 h before the test and with 0.5 mg of progesterone 4 h before the test). Sexually naïve test and control animals were used. Forty eight hours before the tests, both the test and control animals were primed with 5 μg oestradiol benzoate. Test animals were treated with the above compound (1)(30-100 mg/kg) which was dissolved in PEG 200 vehicle and administered orally in a 1 ml/kg volume 1 h before each test. For animals used as positive controls, progesterone (0.5 mg/0.1 ml) was dissolved in corn oil and administered subcutaneously (s.c.), 4 h before the test. Test and control animals were introduced one at a time for 10-minute periods into the arena. During the 10-min test, the time that the test or positive control animal spent investigating each stimulus animal was noted. The arena was thoroughly cleaned between animals. The position of the male/female stimuli boxes was randomised between animals, in order to avoid place preference. The difference in the percentage of time spent investigating male minus female was calculated, out of the total time spent investigating stimuli animals.
Example 21 was repeated except that compound (1) (3-30 mg/kg) was dissolved in 0.5% methyl cellulose and was administered p.o. in a dosing volume of 3 ml/kg 1 h before tests. Progesterone (0.5 mg/0.1 ml) was dissolved in corn oil and administered s.c., 4 h before test, as a positive control.

[2] = tested on: Ovariectomised adult female Sprague Dawley rats; assay: Female rat sexual receptivity test (lordosis quotient); type: in vivo
Experimental: Ovariectomised adult female Sprague Dawley rats (180-200 g) were housed in groups of 6 in a reversed lighting system of 12 h light:dark (lights off 7.00-19.00 h). Two weeks after ovariectomy they were used for sexual activity tests. The experiments started at least 5 h into the dark period. Compound (1) was dissolved in PEG 200 vehicle and administered orally. Quinelorane dihydrochloride (LY 163,502, 6.25 μg/kg) was dissolved in water and administered s.c., as a positive control. Both compounds were administered in a 1-ml/kg volume. Forty eight hours before tests, the animals were primed with 5 μg oestradiol benzoate dissolved in corn oil and injected s.c. The females were placed with a series of vigorous male rats and subjected to 10 mounts. The lordotic response of the animal was recorded and expressed as a percentage of the mounts (i.e. lordosis quotient, LQ). […] Animals showing higher LQ were not included in the study. Each rat was tested prior to administration of the compound (1) and then tested similarly at 1 h and at 90 min post-injection of compound (1) or quinelorane respectively.

melting point [°C] | Structure (SMILES) | other results
100 to 105 | COc1ccc(C2(CNC(=O)[C@](C)(Cc3c[nH]c4ccccc34)Nc3nc(-c4ccc([N+](=O)[O-])cc4)co3)CCCCC2)nc1 [Example 1, (S)-3-(1H-Indol-3-yl)-N-[1-(5-methoxy-pyridin-2-yl)-cyclohexylmethyl]-2-methyl-2-[4-(4-nitro-phenyl)-oxazol-2-ylamino]-propionamide] | difference in the percentage of time spent investigating the male stimuli minus female stimuli ([1]; 0.5% methyl cellulose, p.o., 3-30 mg/kg): increased; MED, difference in percentage of time spent investigating male minus female stimuli ([1]; 0.5% methyl cellulose, p.o.): 10 mg/kg; difference in the percentage of time spent investigating the male stimuli minus female stimuli ([1]; PEG 200 vehicle, oral, 30-100 mg/kg): increased; MED, difference in percentage of time spent investigating male minus female stimuli ([1]; PEG 200 vehicle, oral): 100 mg/kg; increase in potency in methyl cellulose compared to PEG 200 vehicle ([1]; oral, MED 10 vs 100 mg/kg): 10 fold; lordosis quotient (LQ) versus before administration ([2]; PEG 200, single oral administration, 10-100 mg/kg, 1 h after administration): increased
98 to 101 | C[C@@](Cc1c[nH]c2ccccc12)(Nc1cncc2ccccc12)C(=O)NCC1(c2ccccn2)CCCCC1 [Example 11, (S)-3-(1H-Indol-3-yl)-2-(isoquinolin-4-ylamino)-2-methyl-N-(1-pyridin-2-yl-cyclohexylmethyl)-propionamide] | –
110 to 114 | COc1ccc(C2(CNC(=O)[C@](C)(Cc3c[nH]c4ccccc34)Nc3nc(-c4ccc([N+](=O)[O-])cc4)cs3)CCCCC2)nc1 [Example 8, (S)-3-(1H-Indol-3-yl)-N-[1-(5-methoxy-pyridin-2-yl)-cyclohexylmethyl]-2-methyl-2-[4-(4-nitro-phenyl)-thiazol-2-ylamino]-propionamide] | –
198 to 200 | C[C@@](Cc1c[nH]c2ccccc12)(Nc1nc2ccccc2o1)C(=O)NCC1(c2ccccn2)CCCCC1 [Example 9, (S)-2-(Benzooxazol-2-ylamino)-3-(1H-indol-3-yl)-2-m thyl-N-(1-pyridin-2-yl-cyclohxylmethyl)-propionamide] | –
58 to 60 | C[C@@](Cc1c[nH]c2ccccc12)(NCc1ccc([N+](=O)[O-])cc1)C(=O)NCC1(c2ccccn2)CCCCC1 [Example 19, (S)-3-(1H-Indol-3-yl)-2-methyl-2-(4-nitro-benzylamino)-N-(1-pyridin-2-yl-cyclohexylmethyl)-propionamide] | –
95 to 98 | C[C@@](Cc1c[nH]c2ccccc12)(Nc1cncnc1)C(=O)NCC1(c2ccccn2)CCCCC1 [Example 12, (S)-3-(1H-Indol-3-yl)-2-methyl-N-(1-pyridin-2-yl-cyclohexylmethyl)-2-(pyrimidin-5-ylamino)-propionamide] | –
70 to 75 | Cc1cccc(N[C@@](C)(Cc2c[nH]c3ccccc23)C(=O)NCC2(c3ccccn3)CCCCC2)c1 [Example 14, (S)-3-(1H-Indol-3-yl)-2-methyl-N-(1-pyridin-2-yl-cyclohexylmethyl)-2-m-tolylamino-propionamide] | –
60 to 65 | CCc1coc(N[C@@](C)(Cc2c[nH]c3ccccc23)C(=O)NCC2(c3ccc(OC)cn3)CCCCC2)n1 [Example 7, (S)-2-(4-Ethyl-oxazol-2-ylamino)-3-(1H-indol-3-yl)-N-[1-(5-methoxy-pyridin-2-yl)-cyclohexylmethyl]-2-methyl-propionamide] | –
85 to 90 | COc1ccc(C2(CNC(=O)[C@](C)(Cc3c[nH]c4ccccc34)Nc3nc(-c4ccccc4)co3)CCCCC2)nc1 [Example 6, (S)-3-(1H-Indol-3-yl)-N-[1-(5-methoxy-pyridin-2-yl)-cyclohexylmethyl]-2-methyl-2-(4-phenyl-oxazol-2-ylamino)-propionamide] | –
180 to 195 | C[C@@](Cc1c[nH]c2ccccc12)(Nc1ccncc1)C(=O)NCC1(c2ccccn2)CCCCC1 [Example 10, (S)-3-(1H-Indol-3-yl)-2-methyl-2-(pyridin-4-ylamino)-N-(1-pyridin-2-yl-cyclohexylmethyl)-propionamide] | –
105 to 108 | COc1ccc(C2(CNC(=O)[C@](C)(Cc3c[nH]c4ccccc34)Nc3nc(-c4ccc(C#N)cc4)co3)CCCCC2)nc1 [Example 5, (S)-2-[4-(4-Cyano-phenyl)-oxazol-2-ylamino]-3-(1H-indol-3-yl)-N-[1-(5-methoxy-pyridin-2-yl)-cyclohexylmethyl]-2-methyl-propionamide] | –
– | CCCN1CCC[C@@H]2Cc3nc(N)ncc3C[C@H]21 [quinelorane, Quinelorane dihydrochloride, reference compound] | lordosis quotient (LQ) versus before administration ([2]; 6.25 μg/kg s.c. in water, 90 min after administration): significantly (P<0.01) increased
– | CC(=O)[C@H]1CC[C@H]2[C@@H]3CCC4=CC(=O)CC[C@]4(C)[C@H]3CC[C@]12C [progesterone, reference compound] | effect on proceptivity (positive control) ([1]; 0.5 mg/0.1 ml in corn oil s.c., 4 h before test): maximal
80 to 90 | C[C@@](Cc1c[nH]c2ccccc12)(Nc1nc(-c2ccc([N+](=O)[O-])cc2)co1)C(=O)NCC(=O)c1ccccc1 [Example 3, (S)-3-(1H-Indol-3-yl)-2-methyl-2-[4-(4-nitro-phenyl)-oxazol-2-ylamino]-N-(2-oxo-2-phenyl-ethyl)-propionamide] | –
189 to 192 | COCC1(CNC(=O)[C@](C)(Cc2c[nH]c3ccccc23)Nc2nc(-c3ccc([N+](=O)[O-])cc3)co2)CCCCC1 [Example 2, (S)-3-(1H-Indol-3-yl)-N-(1-methoxymethyl-cyclohexylmethyl)-2-methyl-2-[4-(4-nitro-phenyl)-oxazol-2-ylamino]-propionamide] | –
